According to US6211244A, “Calcium receptor-active compounds” (priority 1995, dated 2001):
“And” between values parts separate entries of the source, which are not always exact repeats. Equal values may be shown once. Where a name gives a salt, the structure may show the parent alone. Read-outs that look alike come from different tables or passages of the source. One block for each compound: values may come before it.

Target: T1, human calcium receptor (Homo sapiens, UniProt P41180, R990G)
T1 construct: expressed in transfected cells; host or cells: HEK 293
T1 sequence (P41180 20-1078 R990G): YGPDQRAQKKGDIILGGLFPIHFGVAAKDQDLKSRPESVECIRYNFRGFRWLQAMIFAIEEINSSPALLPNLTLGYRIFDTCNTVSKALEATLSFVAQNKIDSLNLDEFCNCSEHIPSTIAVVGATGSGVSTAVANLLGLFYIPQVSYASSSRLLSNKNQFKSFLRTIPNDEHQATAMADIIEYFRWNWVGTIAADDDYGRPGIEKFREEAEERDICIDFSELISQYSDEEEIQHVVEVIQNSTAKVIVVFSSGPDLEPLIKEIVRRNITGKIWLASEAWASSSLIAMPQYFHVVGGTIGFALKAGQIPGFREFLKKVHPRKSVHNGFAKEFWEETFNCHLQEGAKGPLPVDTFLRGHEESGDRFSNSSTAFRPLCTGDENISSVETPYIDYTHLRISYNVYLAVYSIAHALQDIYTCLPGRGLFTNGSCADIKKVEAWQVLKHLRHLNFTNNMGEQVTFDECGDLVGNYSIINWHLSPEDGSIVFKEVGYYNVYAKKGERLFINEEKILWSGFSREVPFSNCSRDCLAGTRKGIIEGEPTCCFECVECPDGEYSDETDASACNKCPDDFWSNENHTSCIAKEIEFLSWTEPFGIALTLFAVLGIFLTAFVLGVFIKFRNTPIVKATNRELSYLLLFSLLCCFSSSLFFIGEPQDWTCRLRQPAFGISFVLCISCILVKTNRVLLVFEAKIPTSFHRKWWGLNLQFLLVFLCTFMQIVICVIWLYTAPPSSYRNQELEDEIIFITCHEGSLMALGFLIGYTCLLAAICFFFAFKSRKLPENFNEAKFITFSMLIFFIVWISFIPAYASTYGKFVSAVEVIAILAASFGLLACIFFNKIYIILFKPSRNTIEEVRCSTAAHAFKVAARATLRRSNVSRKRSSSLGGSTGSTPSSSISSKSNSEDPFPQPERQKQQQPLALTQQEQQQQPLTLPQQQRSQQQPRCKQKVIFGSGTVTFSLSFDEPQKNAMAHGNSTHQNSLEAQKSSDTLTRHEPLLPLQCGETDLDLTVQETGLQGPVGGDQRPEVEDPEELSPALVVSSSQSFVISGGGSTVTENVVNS
Assay: increases in [Ca^2+ ]i in HEK-293 cells expressing the human calcium receptor (fura-2 loaded HEK 293/pHuPCaR4.0 cells), % activity
Type: cell-based

% activity: 45
% activity (33 ng/mL): 8%
SMILES: CC(NC1CCc2ccccc2C1)c1ccccc1 (mixture of isomers) [Compound 4B]

SMILES: CC(C=Cc1ccccc1)NC(C)c1ccccc1 (mixture of isomers) [Compound 5D]
% activity (33 ng/mL): 18%
% activity (330 ng/mL): 62%

SMILES: CC(NC1CCc2ccccc21)c1cccc2ccccc12 (mixture of isomers) [Compound 9A]
% activity (33 ng/mL): 56%
% activity (330 ng/mL): 82%

SMILES: COc1cccc(C(C)NC(C)c2ccc(C(C)(C)C)cc2)c1 (mixture of isomers) [Compound 13G]
% activity (33 ng/mL): 82%
% activity (330 ng/mL): 128%
% activity (3300 ng/mL): 111%

SMILES: CC(NC(C)c1ccc(C(C)(C)C)cc1)c1ccccc1 (mixture of isomers) [Compound 13H]
% activity (33 ng/mL): 36%
% activity (330 ng/mL): 48%
% activity (3300 ng/mL): 88%

SMILES: CC(NC(C)c1ccc2ccccc2c1)c1ccc(C(C)(C)C)cc1 (mixture of isomers) [Compound 13I]
% activity (33 ng/mL): 3%
% activity (330 ng/mL): 52%
% activity (3300 ng/mL): 85%

SMILES: CC(C)Cc1ccc(C(C)CNC(C)c2cccc3ccccc23)cc1 (mixture of isomers) [Compound 14A]
% activity (33 ng/mL): 10%
% activity (330 ng/mL): 78%
% activity (3300 ng/mL): 98%

% activity (33 ng/mL): 61%
% activity (330 ng/mL): 92%
SMILES: CC(O)c1ccc(CNC(C)c2cccc3ccccc23)cc1 (mixture of isomers) [Compound 17B]

% activity (33 ng/mL): 119%
% activity (330 ng/mL): 128%
% activity (3300 ng/mL): 125%
SMILES: CCC(NC(C)c1cccc2ccccc12)c1ccc(OC)cc1 (mixture of isomers) [Compound 17G]

SMILES: Cc1cc(C(C)NC(C)c2cccc3ccccc23)ccc1OCc1ccccc1 (mixture of isomers) [Compound 25X]
% activity (33 ng/mL): 72%
% activity (330 ng/mL): 94%
% activity (3300 ng/mL): 96%

SMILES: COc1ccc(C(NC(C)c2cccc3ccccc23)C2CC2)cc1 (single isomer, unassigned) [Compound 17I]
% activity (33 ng/mL): 76%
% activity (330 ng/mL): 97%
% activity (3300 ng/mL): 118%

SMILES: COc1cccc(C(C)NCCC(C)c2ccc(Cl)cc2)c1 (centres unmarked) [5B/5C, N-[3-methyl-3-(4-chlorophenyl)propyl]-1-(3-methoxyphenyl)ethylamine]
% activity (33 ng/mL): 20%
% activity (330 ng/mL): 65%

SMILES: CC(NC(C)c1cc2ccccc2c2ccccc12)c1cccc2ccccc12 (centres unmarked) [10S/10T]
% activity (33 ng/mL): 65%
% activity (330 ng/mL): 86%

SMILES: CC(NCC1CCc2ccccc2C1)c1cccc2ccccc12 (centres unmarked) [10W/10X]
% activity (33 ng/mL): 61% and 53%
% activity (330 ng/mL): 98% and 81%

SMILES: COc1cccc([C@@H](C)NC(C)CCc2ccccc2Cl)c1 (some centres unmarked) [21C = 4U]
% activity (33 ng/mL): 76%
% activity (330 ng/mL): 114%
% activity (3300 ng/mL): 134%

SMILES: CC(NCCCc1ccccc1)c1ccccc1 (centres unmarked) [Compound 1D]
% activity (330 ng/mL): 53%

SMILES: CC(NCCCC1CCCCC1)c1ccccc1 (centres unmarked) [Compound 1T]
% activity (330 ng/mL): 76%

% activity (33 ng/mL): 4%
% activity (330 ng/mL): 56%
SMILES: CC(NCCCc1ccccc1)c1c[nH]c2ccccc12 (centres unmarked) [Compound 2Q]

SMILES: COc1ccccc1C(C)NCCC(c1ccccc1)c1ccccc1 (centres unmarked) [Compound 2S]
% activity (33 ng/mL): 29%
% activity (330 ng/mL): 67%

SMILES: CC(NCCC(c1ccccc1)c1ccccc1)c1ccccc1Cl (centres unmarked) [Compound 2X]
% activity: 15
% activity (330 ng/mL): 66%

SMILES: CC(NCCC(c1ccccc1)c1ccccc1)c1cccc(Cl)c1 (centres unmarked) [Compound 2Y]
% activity (33 ng/mL): 10%
% activity (330 ng/mL): 59%

SMILES: CC(NCCC(c1ccccc1)c1ccccc1)c1ccccc1F (centres unmarked) [Compound 3A]
% activity (33 ng/mL): 7%
% activity (330 ng/mL): 41%

SMILES: CC(NCCC(c1ccccc1)c1ccccc1)c1cccc(F)c1 (centres unmarked) [Compound 3B]
% activity: 15
% activity (330 ng/mL): 52%

% activity: 45
% activity (33 ng/mL): 4%
SMILES: CC(NCCC(c1ccccc1)c1ccccc1)c1ccccc1C(F)(F)F (centres unmarked) [Compound 3D]

SMILES: CC(NCCCc1ccccc1)c1ccccc1 (centres unmarked) [Compound 3H]
% activity (330 ng/mL): 84%

SMILES: Cc1ccccc1C(C)NCCC(c1ccccc1)c1ccccc1 (centres unmarked) [Compound 3L]
% activity (33 ng/mL): 28%
% activity (330 ng/mL): 81%

SMILES: Cc1cccc(C(C)NCCC(c2ccccc2)c2ccccc2)c1 (centres unmarked) [Compound 3M]
% activity (33 ng/mL): 19%
% activity (330 ng/mL): 64%

% activity: 45
% activity (33 ng/mL): 2%
SMILES: CC(NCCC(c1ccccc1)c1ccccc1)c1ccc(O)cc1 (centres unmarked) [Compound 3R]

SMILES: CC(NCCC(c1ccccc1)c1ccccc1)c1cccc2ccccc12 (centres unmarked) [Compound 3U, N-(3,3-diphenylpropyl)-(1-naphthyl)ethylamine]
% activity (33 ng/mL): 57%
% activity (330 ng/mL): 89%

% activity (33 ng/mL): 14%
% activity (330 ng/mL): 56%
SMILES: COc1cccc(C(C)NCc2cccc3ccccc23)c1 (centres unmarked) [Compound 3V]

SMILES: CC(N[C@H](C)c1ccccc1)c1cccc2ccccc12 (some centres unmarked) [Compound 4G, N-[1-(1-naphthyl)ethyl)-1-phenylethylamine]
% activity (33 ng/mL): 46%
% activity (330 ng/mL): 83%

% activity (33 ng/mL): 9%
% activity (330 ng/mL): 40%
SMILES: CC(NCc1cccc2ccccc12)c1ccccc1 (centres unmarked) [Compound 4I]

SMILES: CC(NCc1ccc2ccccc2c1)c1ccccc1 (centres unmarked) [Compound 4J]
% activity (33 ng/mL): 8%
% activity (330 ng/mL): 47%

SMILES: COc1cccc(C(C)NCCCc2ccccc2F)c1 (centres unmarked) [Compound 4M]
% activity (33 ng/mL): 34%
% activity (330 ng/mL): 68%

SMILES: COc1cccc([C@@H](C)NCCCc2ccc(F)cc2)c1 [Compound 4P]
% activity (330 ng/mL): 81% and 61%

SMILES: COc1cccc(C(C)NCCCc2ccccc2C(F)(F)F)c1 (centres unmarked) [Compound 4V]
% activity (33 ng/mL): 59%
% activity (330 ng/mL): 93%

SMILES: CC(COc1ccccc1)NC(C)c1ccccc1 (centres unmarked) [Compound 5G]
% activity (33 ng/mL): 16%
% activity (330 ng/mL): 58%

SMILES: C[C@@H](NCC=C(c1ccccc1)c1ccccc1)c1ccccc1 [Compound 5L]
% activity (33 ng/mL): 16%
% activity (330 ng/mL): 60%

SMILES: CC(NCC=Cc1ccccc1[N+](=O)[O-])c1ccccc1 (centres unmarked) [Compound 5M]
% activity (33 ng/mL): 21%
% activity (330 ng/mL): 73%

SMILES: CCOc1cccc([C@@H](C)NCCCc2ccccc2)c1 [Compound 6R, (R)-N-(3-phenylpropyl)-1-(3-ethoxyphenyl)ethylamine]
% activity (33 ng/mL): 52%
% activity (330 ng/mL): 94%

SMILES: CCOc1cccc([C@@H](C)NCCCc2ccccc2Cl)c1 [Compound 6T, (R)-N-[3-(2-chlorophenyl)propyl]-1-(3-ethoxyphenyl)ethylamine]
% activity (33 ng/mL): 78%
% activity (330 ng/mL): 129%
% activity (3300 ng/mL): 123%

SMILES: COc1cccc([C@@H](C)NCCCc2cccc(Cl)c2)c1 [Compound 6X]
% activity (33 ng/mL): 52%
% activity (330 ng/mL): 84%

SMILES: C[C@@H](NCCCc1ccccc1Cl)c1cccc(OC(F)(F)F)c1 [Compound 7U]
% activity (330 ng/mL): 49%

SMILES: CC(=O)c1cccc(C(C)NCCCc2ccccc2)c1 (centres unmarked) [Compound 7W]
% activity (330 ng/mL): 76%

SMILES: COc1cccc(C(C)NCCCC2CCCCC2)c1 (centres unmarked) [Compound 7X]
% activity (330 ng/mL): 85%

% activity (330 ng/mL): 54%
SMILES: COc1cc(OC)cc(C(C)NCCCc2ccccc2)c1 (centres unmarked) [Compound 8A]

SMILES: CSc1cccc(C(C)NCCCc2ccccc2)c1 (centres unmarked) [Compound 8J, N-(3-phenylpropyl)-1-(3-thiomethylphenyl)ethylamine hydrochloride]
% activity (33 ng/mL): 77%
% activity (330 ng/mL): 104%

% activity (33 ng/mL): 81%
% activity (330 ng/mL): 98%
SMILES: CSc1cccc(C(C)NCCCc2ccccc2Cl)c1 (centres unmarked) [Compound 8K]

% activity (33 ng/mL): 42%
% activity (330 ng/mL): 73%
SMILES: COc1cccc(C(C)NCCCc2cc(OC)c(OC)c(OC)c2)c1 (centres unmarked) [Compound 8S]

SMILES: COc1cccc(C(C)NCC=Cc2ccccc2OC)c1 (centres unmarked) [Compound 8T]
% activity (33 ng/mL): 55%
% activity (330 ng/mL): 85%

SMILES: COc1cccc([C@@H](C)NCCCc2ccccc2OC)c1 [Compound 8U, N-3-(2-methoxyphenyl)-1-propyl-(R)-3-methoxy-α-methylbenzylamine hydrochloride]
% activity (33 ng/mL): 82%
% activity (330 ng/mL): 129%
% activity (3300 ng/mL): 123%

SMILES: COc1cccc([C@@H](C)NCCCc2ccc(C)cc2)c1 [Compound 8X]
% activity (33 ng/mL): 40%
% activity (330 ng/mL): 75%

SMILES: CC(N[C@H](C)c1cccc2ccccc12)c1ccc2ccccc2c1 (some centres unmarked) [Compound 8Z]
% activity (33 ng/mL): 97%
% activity (330 ng/mL): 101%

SMILES: C[C@@H](N[C@H](C)c1cccc2ccccc12)c1ccc2ccccc2c1.Cl [Compound 9R, (R)-N-(1-(2-naphthyl)ethyl)-(R)-1-(1-naphthyl)ethylamine hydrochloride]
% activity (33 ng/mL): 101%
% activity (330 ng/mL): 108%

SMILES: CC(NCc1ccc(-c2ccccc2)cc1)c1cccc2ccccc12 (centres unmarked) [Compound 10N]
% activity (33 ng/mL): 77%
% activity (330 ng/mL): 97%
% activity (3300 ng/mL): 106%
